According to PMC9823006 (Nature Communications, 2023):
Where “and” joins values, the source holds several entries; their conditions need not be identical. Identical values can stand only once. Like-named read-outs stand apart in the source and are kept apart here. Values belong to the compound of their own block, whether it stands above or below them.

Key:
[1] = molecular target: α-TTP; design: method as in earlier work; details: quoted by reviewer as specific binding; ref 1 Panagabko, C. et al. Biochemistry 42, 6467–74 (2003); cited from earlier work
[2] = test system: Kal^cSec14; details: previous studies; cited from earlier work
[3] = molecular target: T1, Kal^Sec14 (Rattus norvegicus, UniProt P97924, N62Y/T46S); experiment: Liposome flotation binding assay (Accudenz gradient, Western blot); details: Suppl. Fig. 9b,c
T1 construct: 19.4 kDa); His6 (TEV-cleavable) (N, cleaved yes); made in house; host or cells: E. coli BL21(DE3)
Method: (§1) The synthetic and natural lipids used in flotation assays were purchased from Avanti Polar Lipids, Inc. (Supplementary Table 2). All powdered lipids were dissolved in chloroform per the manufacturer’s instructions. Liposomes were prepared as previously described. […] Individual test lipids were dried together with the control lipid mix under a nitrogen stream and lyophilized overnight. Each dried lipid film was reconstituted to a final concentration of 1 mM in HN buffer containing 20 mM HEPES (pH 7.4) and 150 mM NaCl. Each final lipid mixtures consisted of 52% DOPC, 20% DOPE, 5% DOPS, 15% cholesterol and 8% tested lipid; inclusion of a trace amount of fluorescent lipid (Liss Rhod PE) allowed for localization of liposomes following gradient fractionation (see below). Each lipid mixture underwent five freeze-thaw cycles separated by vigorous vortexing each time it was thawed. Using a mini-extruder, unilamellar liposomes were prepared by passing each lipid mixture 21 times through a polycarbonate membrane of 100-nm pore size. Hydrated lipid mixtures were stored at −20 °C for up to 1 month; liposomes were freshly prepared for each experiment.
(§2) Flotation assays were conducted following the protocol previously described. Accudenz (Accurate Chemical and Scientific Corp., Westbury, NY) solutions (80 and 20% weight/vol) were prepared in HN buffer. To remove any particulate material, the protein to be tested was first centrifuged at 436,000 g at 4 °C for 15 min in a TL-100 ultracentrifuge using a Beckman TLA100.2 fixed angle rotor. Freshly prepared unilamellar liposomes (50 μl) were combined with 0.2 μg of the centrifuged protein and incubated at room temperature for 30 min. The entire liposome/protein mixture was then combined with 50 μl of 80% Accudenz at the bottom of an ultracentrifuge tube and carefully mixed to completion by pipetting. The resulting mixture was overlayered with […] of 20% Accudenz and then with 50 μl of HN buffer. Samples were centrifuged at 259,000 g at 4 °C for 30 min in the same ultracentrifuge using a Beckman TLS55 swinging bucket rotor. Gradients were then divided into four 100-μl fractions, which were carefully collected from the bottom of the tube using gel loading micropipette tips. Each fraction was analyzed for liposome and protein content using spectrophotometry (546-nm excitation/571-nm emission) and Western blot, respectively. Only those assays with at least 90% of the Liss Rhod PE marker recovered in the top fraction (fraction 1) were used for Western bloting analysis.
For Western bloting analysis, equal aliquots of each gradient fraction were denatured in 1× Laemmli sample buffer, fractionated on 15% acrylamide gels, and transferred to PVDF membranes. The protein content was detected using a custom-made rabbit antibody to the Sec14 domain of Kalirin (CT302[69], 1:3000) and an HRP-tagged goat anti-rabbit IgG (H + L) secondary antibody (catalog # 31460, 1:6000; ThermoFisher Scientific). SuperSignal West chemiluminescent substrate (Thermo Scientific) and a Syngene PXi digital imaging system (Synoptics Group) were used to visualize blots, with exposures adjusted to be in the linear range. After background subtraction, bands were quantified using the GeneSys software provided with the imaging system, and data were represented as a proportion of total protein recovered. Uncropped blots, quantification of each data point and exact P-values are provided in the Source Data file. […]
a. Representative Western blots from flotation assays with Kal Sec14 alone (Control), and Kal Sec14 with the control lipid mix (Lipo) or with the lipid mix containing the indicated additional lipid. After binding and separation of liposome bound Kal Sec14 from unbound Kal Sec14 on Accudenz gradients, the protein content of four gradient fractions was dete rmined by immunoblot; liposomes were recovered from the top fraction (fraction 1). Source data are […]

[4] = molecular target: T2, KalbSec14 (Rattus norvegicus, UniProt P97924, N62Y/T46S); experiment: as above
T2 construct: His6 (TEV-cleavable) (N, cleaved yes); made in house; host or cells: E. coli BL21(DE3)
Method: Unilamellar liposomes formed by mixing synthetic dioleoyl phospholipids and cholesterol in proportions mimicking the membranes of the trans-Golgi network (Golgi-mixture) were incubated with Kal^bSec14. An Accudenz gradient was used to separate liposome-bound proteins, which were recovered from the top of the gradient (fraction 1), from unbound proteins, which remained at the bottom (fraction 4). Protein levels in each fraction were analyzed by Western blotting with an antibody to the Sec14 domain of Kalirin.
as §1, §2
For Western bloting analysis, equal aliquots of each gradient fraction were denatured in 1× Laemmli sample buffer, fractionated on 15% acrylamide gels, and transferred to PVDF membranes. The protein content was detected using a custom-made rabbit antibody to the Sec14 domain of Kalirin (CT302[69], 1:3000) and an HRP-tagged goat anti-rabbit IgG (H + L) secondary antibody (catalog # 31460, 1:6000; ThermoFisher Scientific). SuperSignal West chemiluminescent substrate (Thermo Scientific) and a Syngene PXi digital imaging system (Synoptics Group) were used to visualize blots, with exposures adjusted to be in the linear range.

[5] = molecular target: T1, Kal^Sec14; experiment: NMR chemical shift perturbation (CSP) titration, 1H-15N HSQC; assay type: binding
Method: (§3) ^1H-^15N HSQC spectra of the uniformly ^15N-labeled Kal^bSec14 and Kal^Sec14 were recorded at 25 °C on an Agilent VNMRS 800 MHz (^1H) spectrometer equipped with a cryogenic probe. ^1H-^15N HSQC spectra of the uniformly ^15N-labeled Kal^bSec14 mutants were recorded using the TopSpin software (https://www.bruker.com/en/products-and-solutions/mr/nmr-software/topspin.html) at 25 °C on a Bruker Avance NEO 600 MHz spectrometer equipped with a cryogenic probe. All detergents and lipids used in this study were purchased from Cube Biotech Inc. (Wayne, Pennsylvania) and Avanti Polar Lipids, Inc. (Alabaster, Alabama), respectively; details are listed in Supplementary Table 2. After collecting an initial protein-only spectrum with a starting protein concentration of 0.4 mM, each detergent or lipid was dissolved in the same NMR buffer and gradually added to the protein until no further CSP was observed. Each series usually comprised 8-12 titration points, with ligand concentrations ranging from 0 to 8 mM and final protein:ligand ratios from 1:7 to 1:25 (the protein concentration in each mixture during titration was confirmed by UV-vis absorbance at 280 nm). The HSQC spectrum was recorded for each titration point using the same instrument setup as that of the apo protein. All spectra were processed with NMRPipe[59], and peak heights and locations were analyzed in CcpNmr Analysis[60].
(§4) For each titration series, observed CSPs for a single amino acid residue were calculated using the combined shift change (Δδ) of the backbone amide nitrogen and proton based on the equation △δ(ppm)=[△δH2+(α⋅△δN)^2] , where ΔδH and ΔδN are the ^1H and ^15N chemical shift differences between the free and bound states, respectively, and α denotes the chemical shift scaling factor for ^15N[63].
(§5) In each titration series, the peaks for all residues were ranked based on the CSP observed upon titration at the highest ligand concentration. […] The well-resolved and non-overlapped CSPs, usually including most of the 2σ CSPs and some of the 1σ CSPs, were then plotted as a function of the ligand concentration and the dissociation constant (KD) was extracted by nonlinear least-square fitting of the following equation: △δobs=△δmax(KD+[L]t+[P]t)−(KD+[L]t+[P]t)^2−4[L]t[P]t/2[P]t , where [P]t and [L]t are the total protein and ligand concentrations, respectively, and △δmax is the chemical shift difference at saturation. The bound fraction plotted as the y-axis in the Figures was defined as △δobs/△δmax based on the average of the normalized CSPs from all the selected peaks. Titration data for each residue and each peak used for KD calculations are provided in the Source Data file.

[6] = molecular target: T2, KalbSec14; experiment: as above; assay type: binding
Method: as §3, §4, §5

[7] = molecular target: T2, KalbSec14; experiment: Isothermal titration calorimetry (preliminary); assay type: binding; details: data not shown; authors' response in peer review file; read-out: estimated KD from preliminary ITC data
[8] = average, biological replication ≥ 3
[9] = individual experiments (Exp. 1-4)
[10] = mean of independent experiments, normalized to total protein recovered, test lipid 8% of liposome lipid
[11] = construct without Ex1B front peptide, NMR titration, mean ± S.D. over residues, 25 °C, read-out: KD
[12] = NMR titration, two-state binding model, mean ± S.D. of CSP data for individual residues, 25 °C, read-out: KD
[13] = source data of the global fitting, S.D. in the next column, read-out: KD, Ave of residue peaks

Compound: Cc1c(C)c2c(c(C)c1O)CC[C@@](C)(CCC[C@H](C)CCC[C@H](C)CCCC(C)C)O2 [α-tocopherol]
Kd [1]: 0.025 µM

Densitometry values for the Western blots, Fraction 1, Ave. [3, 8]: 0.06 | Densitometry values for the Western blots, Fraction 2, Ave. [3, 8]: 0.02 | Densitometry values for the Western blots, Fraction 3, Ave. [3, 8]: 0.13 | Densitometry values for the Western blots, Fraction 4, Ave. [3, 8]: 0.79 | Densitometry values for the Western blots, Fraction 1 [3, 9]: 0.08 and 0.06 and 0.0331 | Densitometry values for the Western blots, Fraction 2 [3, 9]: 0.00889 and 0.05 and 0.0021 | Densitometry values for the Western blots, Fraction 3 [3, 9]: 0.04 and 0.22 and 0.13 | Densitometry values for the Western blots, Fraction 4 [3, 9]: 0.87 and 0.67 and 0.84 | binding of Kal^bSec14 to liposomes containing the lipid ([4]; Golgi-mixture liposomes with 8% test lipid, result in words): does not interact | Fraction 1 protein content (top fraction, liposome-bound), densitometry, Ave. [4, 10]: 0.0251 | Fraction 2 protein content, densitometry, Ave. [4, 10]: 0.0079 | Fraction 3 protein content, densitometry, Ave. [4, 10]: 0.11 | Fraction 4 protein content (bottom fraction, unbound), densitometry, Ave. [4, 10]: 0.86 | Fraction 4 protein content (bottom fraction, unbound), densitometry ([4]; single experiments, normalized to total protein recovered, test lipid 8% of liposome lipid): 0.87 and 0.90 and 0.84 and 0.91 and 0.78
Compound: L-α-phosphatidylinositol-4-phosphate [PI4P]
interaction of Kal^cSec14 with liposomes containing the lipid [2]: specifically interacts

Kd [5, 11]: 514 ± 66 µM | Kd ([5]; read-out: KD of FC12 binding to KalSec14, Ave, average over residue peaks 1-20): 514 µM | Kd [6, 12]: 245 ± 36 µM | Kd [6, 13]: 245 µM | Kd ([6]; source data of the global fitting, peaks numbered, residues not named, read-out: KD fitted for individual residue peaks): 198 µM and 290 µM and 295 µM and 203 µM and 213 µM and 217 µM and 232 µM and 242 µM and 245 µM and 277 µM and 286 µM | Kd [7]: ~500 µM
Compound: CCCCCCCCCCCCOP(=O)([O-])OCC[N+](C)(C)C [FC12, dodecylphosphocholine]
Kd ([5]; read-out: KD of FC12 binding to KalSec14, fit of individual residue peak, residue peaks 1-20, ligand concentrations given in mM): 498 µM and 470 µM and 575 µM and 487 µM (2×) and 514 µM and 590 µM and 540 µM and 542 µM and 537 µM and 496 µM (2×) and 477 µM and 505 µM and 512 µM and 511 µM and 332 µM and 481 µM and 555 µM and 685 µM

Kd [5, 11]: 35.6 ± 7.2 µM | Kd ([5]; read-out: KD of FC14 binding to KalSec14, Ave, average over residue peaks 1-24): 35.6 µM | Kd [6, 12]: 17.1 ± 4.9 µM | Kd [6, 13]: 17.1 µM | Kd [7]: ~30 µM
Compound: CCCCCCCCCCCCCCOP(=O)([O-])OCC[N+](C)(C)C [FC14, tetradecylphosphocholine]
Kd ([5]; read-out: KD of FC14 binding to KalSec14, fit of individual residue peak, residue peaks 1-24, ligand concentrations given in mM): 47.7 µM and 39.3 µM (2×) and 55.2 µM and 45.5 µM and 35.6 µM (3×) and 25.3 µM and 26.6 µM and 37.4 µM (4×) and 32.3 µM (3×) and 33.9 µM (3×) and 27.9 µM (2×) and 41.2 µM and 24.1 µM
